Laboratory results reported in publication PMC5119973 (Cancer Medicine, 2016).
Values joined by “and” are separate entries in the source; they are usually repeats but may differ in a detail not shown here. Identical values can stand only once.

How the values were obtained:
Test in all cases: KINOMEscan active-site competitive binding assay
Settings in all cases: slash = two separate measurements
ERK8 = target: T1, ERK8 (Homo sapiens, UniProt Q8TD08)
T1 construct: purchased DiscoveRx (KINOMEscan service)
T1 sequence (Q8TD08 1-544): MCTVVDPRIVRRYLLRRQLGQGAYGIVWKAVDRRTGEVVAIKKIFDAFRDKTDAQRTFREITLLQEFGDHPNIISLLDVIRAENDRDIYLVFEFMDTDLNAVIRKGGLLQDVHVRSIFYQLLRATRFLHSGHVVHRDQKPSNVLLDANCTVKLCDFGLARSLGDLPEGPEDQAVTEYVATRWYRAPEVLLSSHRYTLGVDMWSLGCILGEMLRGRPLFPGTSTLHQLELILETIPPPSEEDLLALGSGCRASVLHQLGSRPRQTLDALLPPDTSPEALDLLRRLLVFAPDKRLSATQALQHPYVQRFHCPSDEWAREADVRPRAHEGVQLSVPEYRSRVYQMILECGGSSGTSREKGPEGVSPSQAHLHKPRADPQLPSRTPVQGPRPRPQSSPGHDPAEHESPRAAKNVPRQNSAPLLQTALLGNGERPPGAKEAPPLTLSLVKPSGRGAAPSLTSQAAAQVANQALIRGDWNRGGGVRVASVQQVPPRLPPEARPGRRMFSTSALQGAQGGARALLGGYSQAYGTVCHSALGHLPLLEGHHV

MKNK2 = target: T2, MKNK2 (Homo sapiens, UniProt Q9HBH9)
T2 construct: purchased DiscoveRx (KINOMEscan service)

TIE-1 = target: T3, TIE-1 (Homo sapiens, UniProt P35590)
T3 construct: purchased DiscoveRx

TNNI3K = target: T4, TNNI3K (Homo sapiens, UniProt Q59H18)
T4 construct: purchased DiscoveRx
T4 sequence (Q59H18 1-835): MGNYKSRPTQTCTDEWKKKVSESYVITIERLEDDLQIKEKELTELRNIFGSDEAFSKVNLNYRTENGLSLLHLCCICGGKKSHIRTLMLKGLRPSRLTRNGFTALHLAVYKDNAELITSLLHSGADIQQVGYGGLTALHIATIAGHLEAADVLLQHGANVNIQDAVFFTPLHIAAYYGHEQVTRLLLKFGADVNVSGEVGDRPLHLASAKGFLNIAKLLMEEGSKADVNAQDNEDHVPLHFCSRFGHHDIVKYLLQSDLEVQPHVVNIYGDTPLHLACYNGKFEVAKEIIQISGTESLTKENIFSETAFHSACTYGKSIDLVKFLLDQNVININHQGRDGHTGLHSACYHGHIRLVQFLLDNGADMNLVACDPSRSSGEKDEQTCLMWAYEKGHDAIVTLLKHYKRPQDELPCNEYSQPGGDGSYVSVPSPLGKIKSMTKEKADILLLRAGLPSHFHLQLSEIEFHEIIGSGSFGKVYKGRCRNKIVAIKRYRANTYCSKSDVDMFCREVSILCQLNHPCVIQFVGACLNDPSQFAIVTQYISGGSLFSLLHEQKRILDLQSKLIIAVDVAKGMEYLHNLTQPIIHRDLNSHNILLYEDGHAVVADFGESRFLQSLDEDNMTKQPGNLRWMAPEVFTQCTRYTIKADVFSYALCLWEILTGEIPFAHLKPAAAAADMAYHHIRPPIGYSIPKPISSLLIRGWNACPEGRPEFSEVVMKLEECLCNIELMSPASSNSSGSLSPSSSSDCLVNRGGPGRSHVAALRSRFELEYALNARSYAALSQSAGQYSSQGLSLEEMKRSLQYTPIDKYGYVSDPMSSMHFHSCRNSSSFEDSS

YSK4 = target: T5, YSK4 (Homo sapiens, UniProt Q56UN5)
T5 construct: purchased DiscoveRx
T5 sequence (Q56UN5 1-1328): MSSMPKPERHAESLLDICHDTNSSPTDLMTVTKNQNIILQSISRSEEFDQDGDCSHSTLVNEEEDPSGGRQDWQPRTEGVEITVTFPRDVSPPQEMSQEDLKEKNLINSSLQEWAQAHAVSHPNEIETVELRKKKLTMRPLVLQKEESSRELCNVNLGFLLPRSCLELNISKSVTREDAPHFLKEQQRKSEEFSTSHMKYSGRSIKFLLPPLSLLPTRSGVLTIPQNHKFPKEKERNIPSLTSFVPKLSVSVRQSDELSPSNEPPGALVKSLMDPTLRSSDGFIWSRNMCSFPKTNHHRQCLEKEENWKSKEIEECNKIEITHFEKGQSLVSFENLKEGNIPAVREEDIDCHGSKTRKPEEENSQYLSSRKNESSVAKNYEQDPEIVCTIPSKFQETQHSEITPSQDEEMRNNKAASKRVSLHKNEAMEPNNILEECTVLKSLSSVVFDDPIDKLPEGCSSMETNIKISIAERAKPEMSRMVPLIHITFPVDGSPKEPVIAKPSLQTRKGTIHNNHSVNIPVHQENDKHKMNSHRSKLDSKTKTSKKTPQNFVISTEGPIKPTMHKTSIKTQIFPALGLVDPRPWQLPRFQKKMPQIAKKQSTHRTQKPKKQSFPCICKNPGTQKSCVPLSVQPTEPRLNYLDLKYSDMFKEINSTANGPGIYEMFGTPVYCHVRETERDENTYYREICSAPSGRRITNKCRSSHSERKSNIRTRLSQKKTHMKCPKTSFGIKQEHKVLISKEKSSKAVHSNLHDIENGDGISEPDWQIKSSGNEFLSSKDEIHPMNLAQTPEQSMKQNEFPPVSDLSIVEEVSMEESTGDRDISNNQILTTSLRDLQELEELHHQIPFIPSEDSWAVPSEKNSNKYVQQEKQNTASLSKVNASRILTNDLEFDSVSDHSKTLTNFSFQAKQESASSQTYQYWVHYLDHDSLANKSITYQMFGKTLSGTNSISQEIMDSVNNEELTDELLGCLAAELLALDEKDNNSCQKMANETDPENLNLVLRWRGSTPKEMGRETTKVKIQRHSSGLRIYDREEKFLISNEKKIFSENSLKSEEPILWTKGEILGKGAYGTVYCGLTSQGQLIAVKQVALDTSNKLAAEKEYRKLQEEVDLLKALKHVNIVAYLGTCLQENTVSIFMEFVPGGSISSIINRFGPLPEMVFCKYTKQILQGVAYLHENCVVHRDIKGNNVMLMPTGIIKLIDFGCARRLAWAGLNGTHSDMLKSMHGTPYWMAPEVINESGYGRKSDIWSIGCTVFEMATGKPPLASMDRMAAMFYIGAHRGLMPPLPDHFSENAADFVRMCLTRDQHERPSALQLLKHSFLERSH

ZAK = target: T6, ZAK (Homo sapiens, UniProt Q9NYL2)
T6 construct: purchased DiscoveRx
T6 sequence (Q9NYL2 whole entry): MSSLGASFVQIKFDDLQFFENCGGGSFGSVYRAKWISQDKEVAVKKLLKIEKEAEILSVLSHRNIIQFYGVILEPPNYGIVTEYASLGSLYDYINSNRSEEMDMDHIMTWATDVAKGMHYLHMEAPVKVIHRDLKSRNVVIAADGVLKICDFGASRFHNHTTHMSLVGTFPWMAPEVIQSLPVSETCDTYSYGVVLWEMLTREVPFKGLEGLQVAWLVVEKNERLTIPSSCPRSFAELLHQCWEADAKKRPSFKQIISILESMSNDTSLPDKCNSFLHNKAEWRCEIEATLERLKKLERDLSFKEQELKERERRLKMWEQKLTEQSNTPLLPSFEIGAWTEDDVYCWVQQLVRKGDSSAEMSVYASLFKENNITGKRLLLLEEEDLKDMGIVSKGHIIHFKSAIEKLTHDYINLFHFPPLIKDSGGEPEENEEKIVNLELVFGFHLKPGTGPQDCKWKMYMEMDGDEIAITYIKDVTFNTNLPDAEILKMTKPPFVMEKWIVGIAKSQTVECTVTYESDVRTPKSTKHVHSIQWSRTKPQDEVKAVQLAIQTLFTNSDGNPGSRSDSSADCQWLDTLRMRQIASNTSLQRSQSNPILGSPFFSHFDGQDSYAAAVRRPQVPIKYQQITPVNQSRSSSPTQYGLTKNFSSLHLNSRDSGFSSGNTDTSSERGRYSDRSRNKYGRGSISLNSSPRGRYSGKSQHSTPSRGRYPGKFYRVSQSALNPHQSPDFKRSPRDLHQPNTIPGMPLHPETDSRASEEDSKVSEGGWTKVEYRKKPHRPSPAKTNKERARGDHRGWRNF

T2 sequence (Q9HBH9 whole entry): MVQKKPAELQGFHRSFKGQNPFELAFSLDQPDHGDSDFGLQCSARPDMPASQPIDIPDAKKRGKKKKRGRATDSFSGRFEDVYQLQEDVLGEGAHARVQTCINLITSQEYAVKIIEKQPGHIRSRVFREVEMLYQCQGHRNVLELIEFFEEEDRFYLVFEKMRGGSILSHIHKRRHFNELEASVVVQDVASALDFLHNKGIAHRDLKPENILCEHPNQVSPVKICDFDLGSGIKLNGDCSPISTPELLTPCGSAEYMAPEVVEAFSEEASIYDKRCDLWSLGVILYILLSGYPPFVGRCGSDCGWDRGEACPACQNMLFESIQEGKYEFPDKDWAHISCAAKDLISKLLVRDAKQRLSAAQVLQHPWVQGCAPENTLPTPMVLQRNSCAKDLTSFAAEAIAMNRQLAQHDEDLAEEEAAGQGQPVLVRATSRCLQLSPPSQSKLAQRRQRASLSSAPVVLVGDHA
T3 sequence (P35590 22-1138): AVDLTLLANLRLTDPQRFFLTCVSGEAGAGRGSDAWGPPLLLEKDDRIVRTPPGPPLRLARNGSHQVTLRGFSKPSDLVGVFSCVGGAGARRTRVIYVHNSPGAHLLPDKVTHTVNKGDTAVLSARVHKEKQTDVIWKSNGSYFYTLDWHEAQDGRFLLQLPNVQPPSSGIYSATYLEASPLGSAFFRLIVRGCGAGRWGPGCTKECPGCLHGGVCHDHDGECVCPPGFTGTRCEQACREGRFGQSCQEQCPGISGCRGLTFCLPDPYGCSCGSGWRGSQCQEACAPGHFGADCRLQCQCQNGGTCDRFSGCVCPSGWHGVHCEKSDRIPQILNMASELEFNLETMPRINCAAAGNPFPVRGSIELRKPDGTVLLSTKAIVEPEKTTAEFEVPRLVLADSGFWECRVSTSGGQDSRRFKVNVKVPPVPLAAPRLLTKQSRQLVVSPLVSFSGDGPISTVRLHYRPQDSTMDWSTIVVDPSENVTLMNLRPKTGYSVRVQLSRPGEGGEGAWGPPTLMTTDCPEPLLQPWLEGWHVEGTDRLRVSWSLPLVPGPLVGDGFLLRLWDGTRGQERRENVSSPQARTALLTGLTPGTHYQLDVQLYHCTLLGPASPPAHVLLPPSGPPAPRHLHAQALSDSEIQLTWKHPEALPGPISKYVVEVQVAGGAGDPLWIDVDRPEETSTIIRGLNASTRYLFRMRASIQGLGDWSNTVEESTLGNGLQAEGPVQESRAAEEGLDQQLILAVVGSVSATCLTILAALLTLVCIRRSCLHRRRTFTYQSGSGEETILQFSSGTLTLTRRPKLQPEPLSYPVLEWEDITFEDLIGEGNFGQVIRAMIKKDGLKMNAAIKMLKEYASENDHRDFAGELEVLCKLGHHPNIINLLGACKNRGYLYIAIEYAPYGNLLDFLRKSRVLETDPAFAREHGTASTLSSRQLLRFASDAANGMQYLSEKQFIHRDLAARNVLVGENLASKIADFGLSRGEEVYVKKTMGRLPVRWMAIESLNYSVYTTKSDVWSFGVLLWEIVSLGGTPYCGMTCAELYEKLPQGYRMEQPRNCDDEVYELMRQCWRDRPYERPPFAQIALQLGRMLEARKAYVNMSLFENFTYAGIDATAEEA

| SMILES | Kd (ERK8) | Kd (MKNK2) | Kd (TIE-1) | Kd (TNNI3K) | Kd (YSK4) | Kd (ZAK) |
| --- | --- | --- | --- | --- | --- | --- |
| CNC(=O)c1cc(Oc2ccc(NC(=O)Nc3ccc(Cl)c(C(F)(F)F)c3)c(F)c2)cc[n+]1[O-] [M‐2] | 16 nM | 20 nM | 48 nM | 160 nM | 55 nM | 6.7 nM |
| NC(=O)c1cc(Oc2ccc(NC(=O)Nc3ccc(Cl)c(C(F)(F)F)c3)c(F)c2)cc[n+]1[O-] [M‐5] | 26 nM | 11 nM | 73 nM | 77 nM | 70 nM | 7 nM |
| CNC(=O)c1cc(Oc2ccc(NC(=O)Nc3ccc(Cl)c(C(F)(F)F)c3)c(F)c2)ccn1 [Regorafenib, reference compound] | 25 nM and 17 nM | 90 nM and 64 nM | 30 nM and 27 nM | 170 nM and 110 nM | 38 nM and 94 nM | 2.8 nM and 2 nM |
